{
  "source": "paper PMC10610016",
  "about": "“New Hybrid Compounds Incorporating Natural Products as Multifunctional Agents against Alzheimer’s Disease” (Pharmaceutics, 2023)",
  "key": {"rat brain homogenate": {"test_system": "rat brain homogenate", "assay": "TBARS assay, ex vivo rat brain homogenate (Fe3+/ascorbic acid lipid peroxidation)", "assay_type": "biochemical", "conditions": "compound 1 μM", "protocol": "The TBARS assay was carried on in accordance with a previously published protocol. Briefly, the rat brain, freshly isolated, was homogenized in 10% (w/v) phosphate buffer, pH 7.4. The stock solutions of compounds 2a–c and 3a–c (10 mM in DMSO) were prepared and then diluted at three different concentrations (1 mM, 100 µM, and 10 µM) with phosphate buffer pH 7.4. The experiment was performed in a falcon tube where the rat brain homogenate (100 µL) was added to FeCl3 (20 µM) and ascorbic acid (100 µM) with or without test compounds. […] All samples were heated at 37 °C and were stirred for 30 min. After this period, thiobarbituric acid (1% w/v in 0.05 N NaOH) and 25% v/v HCl were added and the falcon tubes were boiled for 10 min. Then, they were cooled in an ice-cold water bath. Finally, the extraction was executed using n-butanol (3 mL) and the tubes were centrifuged at 2000 g for 10 min. The organic portion was transferred into 96-well plates and the absorbance, at 532 nm, was recorded using a SPECTROstarNano (220–1000 nm) UV–Vis spectrophotometer, Ortenberg, Germany. The TBARS was reported as nmoles of malondialdehyde (MDA)/10 mg of rat brain tissue, by interpolation with the standard curve of 1,1,3,3-tetramethoxypropane. Data represent the mean ± SEM of the triplicate."}, "ABTS assay": {"assay": "ABTS assay", "assay_type": "biochemical", "protocol": "The ABTS assay was performed according to the methods reported in literature. Briefly, 7 mM of ABTS was mixed with 2.45 mM of K2S2O8 solution, ratio 1:1, in 10 mM phosphate buffer (pH 7.4). The mixture was incubated in a dark box at r.t. for 12 h, then the stock solution was diluted until the absorbance was 0.70 ± 0.02 at 734 nm.\nIn a 96-well plate, 190 µL ABTS working solution and 10 µL sample solution (compounds 2a–c, 3a–c at concentration of 100 μM) were mixed and the absorbance was measured (734 nm) using a SPECTROstarNano (220–1000 nm) UV–Vis spectrophotometer, Ortenberg, Germany. Then, for compounds 2a–c the EC50 was calculated and the values were expressed in TEAC equivalents. Each concentration was tested in triplicate and the EC50 was reported as the mean ± SEM of three independent experiments."}, "[1]": {"assay": "DPPH radical scavenging assay", "assay_type": "biochemical", "protocol": "The DPPH assay was carried out in a 96-microwell plate according to a previously described protocol. In brief, DPPH solution (60 µM in MeOH) was added to studied compounds or MeOH as the control. The 96-microwell plate was incubated (in the dark, at r.t. for 1 h) and the absorbance values were read at 517 nm by a SPECTROstarNano (220–1000 nm) UV–Vis spectrophotometer, Ortenberg, Germany. During the first screening, all compounds were tested ad 100 µM, then for compounds 2a–c the EC50 (effective concentration), the concentration of substrate that causes a 50% reduction in the DPPH colour, was calculated.\nAll experiments were made in triplicate. The percentage of the antioxidant activity (%AA) of the compounds was determined according to Equation (1):%AA = ((AbsDPPH − Abssample)/AbsDPPH) × 100(1)\nAbsDPPH is the absorbance of DPPH solution, and Abssample is the absorbance of DPPH solution containing the tested compound.\nEach concentration was tested in triplicate and the EC50 value was reported as the mean ± the standard error of the mean (SEM) of three independent experiments."}, "[2]": {"conditions": "mean ± SEM of three independent experiments"}},
  "data": [
    {"smiles": "O=C(/C=C/c1ccc(O)c(O)c1)NOCc1cccc(C(F)(F)F)c1", "note": "[Compound 2b, (E)-3-(3,4-dihydroxyphenyl)-N-((3-(trifluoromethyl)benzyl)oxy)acrylamide]", "values": [
      {"measurement": "antioxidant effect on TBARS production in rat brain", "setting": "rat brain homogenate", "value": "maintained its profile"},
      {"measurement": "radical scavenger / antioxidant activity, ABTS", "setting": "ABTS assay; compound 100 µM", "value": 98.8, "unit": "%"},
      {"measurement": "EC50", "setting": "ABTS assay; [2]", "value": "13.4 ± 0.1", "unit": "µM"},
      {"measurement": "TEAC, ABTS", "setting": "ABTS assay; [2]", "value": "11.7 ± 0.01", "unit": "µM"},
      {"measurement": "melting point", "value": "110 to 112", "unit": "°C"},
      {"measurement": "%AA (percentage of antioxidant activity), DPPH", "setting": "[1]; compound 100 µM, DPPH 60 µM in MeOH, 1 h", "value": 96, "unit": "%"},
      {"measurement": "EC50", "setting": "[1]; [2]", "value": "6.1 ± 0.1", "unit": "µM"},
      {"measurement": "TEAC (Trolox equivalent antioxidant capacity), DPPH", "setting": "[1]; [2]", "value": "10.9 ± 0.3", "unit": "µM"}
    ]}
  ]
}
